Activity calls are given as the source filed them. The rule behind the calls is not given here.
The compounds below were run against Fibroblast growth factor receptor 3 (Homo sapiens) (UniProt P22607) (assay: Inhibition of FGFR3 at 50 uM).
Fibroblast growth factor receptor 3 (Homo sapiens), sequence (P22607 23-806 limits assumed): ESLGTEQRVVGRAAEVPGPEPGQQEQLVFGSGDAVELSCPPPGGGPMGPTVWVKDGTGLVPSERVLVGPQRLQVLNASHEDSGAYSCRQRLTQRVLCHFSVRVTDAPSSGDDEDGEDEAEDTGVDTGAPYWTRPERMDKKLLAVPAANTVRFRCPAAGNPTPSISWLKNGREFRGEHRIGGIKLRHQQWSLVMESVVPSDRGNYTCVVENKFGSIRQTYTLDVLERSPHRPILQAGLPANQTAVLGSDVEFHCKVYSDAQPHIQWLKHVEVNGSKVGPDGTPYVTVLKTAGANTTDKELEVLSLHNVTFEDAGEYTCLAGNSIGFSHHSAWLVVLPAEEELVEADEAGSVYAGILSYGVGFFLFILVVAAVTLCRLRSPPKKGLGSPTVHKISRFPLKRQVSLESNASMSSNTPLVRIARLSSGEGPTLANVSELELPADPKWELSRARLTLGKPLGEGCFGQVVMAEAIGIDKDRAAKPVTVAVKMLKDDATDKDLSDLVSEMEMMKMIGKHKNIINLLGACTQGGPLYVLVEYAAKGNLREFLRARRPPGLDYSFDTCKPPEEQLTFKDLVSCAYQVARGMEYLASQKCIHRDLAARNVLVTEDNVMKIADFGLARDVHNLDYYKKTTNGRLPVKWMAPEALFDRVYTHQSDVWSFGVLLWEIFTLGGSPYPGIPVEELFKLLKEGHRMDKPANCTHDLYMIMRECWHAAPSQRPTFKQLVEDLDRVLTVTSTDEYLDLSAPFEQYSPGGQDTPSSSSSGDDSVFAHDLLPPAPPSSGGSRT
In the case of `OC[C@H]1O[C@@H](CNc2nc(I)nc3[nH]cnc23)[C@@H](OCc2ccccc2)[C@@H]1OCc1ccccc1`, the “inhibition call (active / not active)” value is reported as “Active”.
In the case of `Nc1nc(Nc2ccccc2)c2ncn(C[C@@H]3O[C@H](CO)[C@@H](O)[C@H]3O)c2n1`, the “inhibition call (active / not active)” value is reported as “inactive”.
`CCN(CC)CCCNc1nc(N)c2ncn(C[C@@H]3O[C@H](CO)[C@@H](O)[C@H]3O)c2n1` was tested, and the “inhibition call (active / not active)” value was “inactive”.
In the case of `Nc1ncc2ncn(C[C@@H]3O[C@H](CO)[C@@H](O)[C@H]3O)c2n1`, the “inhibition call (active / not active)” value is reported as “inactive”.
For `COc1ccc(CCNc2nc(NC[C@@H]3O[C@H](CO)[C@@H](O)[C@@H]3O)c3nc[nH]c3n2)cc1OC`, the “inhibition call (active / not active)” value was “Active”.
With `Ic1nc(NCCN2CCOCC2)c2nc[nH]c2n1` the “inhibition call (active / not active)” value was “Active”.
For `OC[C@H]1O[C@@H](CNc2nc(NCCc3ccccc3)nc3[nH]cnc23)[C@@H](OCc2ccccc2)[C@@H]1OCc1ccccc1`, the “inhibition call (active / not active)” value was “Active”.
In the case of `CCN(CC)CCCNc1nc(Nc2ccccc2)c2ncn(C[C@@H]3O[C@H](CO)[C@@H](O)[C@H]3O)c2n1`, the “inhibition call (active / not active)” value is reported as “inactive”.
With `OC[C@H]1O[C@@H](CNc2nc(NCCc3ccccc3)c3nc[nH]c3n2)[C@@H](OCc2ccccc2)[C@@H]1OCc1ccccc1` the “inhibition call (active / not active)” value was “Active”.
With `COc1ccc(CCNc2nc(NC[C@@H]3O[C@H](CO)[C@@H](O)[C@@H]3O)nc3[nH]cnc23)cc1OC` the “inhibition call (active / not active)” value was “Active”.
With `OC[C@H]1O[C@@H](CNc2nc(NCCN3CCOCC3)nc3[nH]cnc23)[C@@H](O)[C@@H]1O` the “inhibition call (active / not active)” value was “Active”.
In the case of `OC[C@H]1O[C@@H](CNc2nc(NCCN3CCOCC3)c3nc[nH]c3n2)[C@@H](O)[C@@H]1O`, the “inhibition call (active / not active)” value is reported as “Active”.
In the case of `Nc1ncnc2c1ncn2C[C@@H]1O[C@H](CO)[C@@H](O)[C@H]1O`, the “inhibition call (active / not active)” value is reported as “inactive”.
In the case of `Nc1nc(N)c2ncn(C[C@@H]3O[C@H](CO)[C@@H](O)[C@H]3O)c2n1`, the “inhibition call (active / not active)” value is reported as “inactive”.
In the case of `OC[C@H]1O[C@@H](CNc2nc(NCCc3ccccc3)c3nc[nH]c3n2)[C@@H](O)[C@@H]1O`, the “inhibition call (active / not active)” value is reported as “Active”.
`OC[C@H]1O[C@@H](CNc2nc(NCCc3ccccc3)nc3[nH]cnc23)[C@@H](O)[C@@H]1O` was tested, and the “inhibition call (active / not active)” value was “Active”.

Source: ChEMBL document CHEMBL1759917, “Synthesis of purin-2-yl and purin-6-yl-aminoglucitols as C-nucleosidic ATP mimics and biological evaluation as FGFR3 inhibitors” (Eur J Med Chem, 2011)
